# Data taken from patent publication US20080241904A1, “PROCESS FOR PRODUCING ISOMALTOSE AND USES THEREOF” (KABUSHIKI KAISHA HAYASHIBARA SEIBUTSU KAGAKU KENKYUJO, priority 2001, published 2008).
# What was measured:
# [1] = test system: α-isomaltosylglucosaccharide-forming enzyme from Bacillus globisporus C9 strain; experiment: Specificity of saccharide transferring reaction acceptor, enzyme of Strain C9; format: biochemical; parameters: key: −: no saccharide-transferred product was detected through transferring reaction to acceptor; ±: a saccharide-transferred product was detected in an amount of less than one percent through transfer reaction to acceptor; +: a saccharide-transferred product was detected in an amount of at least one percent but less than ten percent through transferring reaction to acceptor; ++: a saccharide-transferred product was detected in an amount of at least ten percent through transferring reaction to acceptor; conditions: 1.6% acceptor, 4% PINE-DEX #100 as donor, one unit/g donor, 30° C., pH 6.0, 24 hours; GLC or HPLC
# Protocol: (§1) Using different saccharides, it was tested whether the saccharides were used as saccharide transferring reaction acceptors for the α-isomaltosylglucosaccharide-forming enzyme. A 1.6% solution, as a solution of saccharide transferring reaction acceptor, of D-glucose, D-xylose, L-xylose, D-galactose, D-fructose, D-mannose, D-arabinose, D-fucose, L-sorbose, L-rhamnose, methyl-α-glucopyranoside (methyl-α-glucose), methyl-β-glucopyranoside ([…]), N-acetyl-glucosamine, sorbitol, α,α-trehalose, isomaltose, isomaltotriose, cellobiose, gentibiose, maltitol, lactose, sucrose, α-cyclodextrin, β-cyclodextrin, or γ-cyclodextrin, was prepared. To each solution with a saccharide concentration was added “PINE-DEX #100”, a partial starch hydrolysate, as a saccharide donor, to give a concentration of 4%, and admixed with one unit/g saccharide donor, d.s.b., of either of purified specimens of α-isomaltosylglucosaccharide-forming enzyme from Bacillus globisporus C9 strain obtained by the method in Experiment 2-1, Bacillus globisporus C11 strain obtained by the method in Experiment 4-1. The resulting mixture solutions were incubated at 30° C. and pH 6.0 except that the enzyme from Arthrobacter globiformis A19 strain was incubated at pH 8.4 for 24 hours. The reaction mixtures of the post-enzymatic reactions were analyzed on gas chromatography (abbreviated as “GLC” hereinafter) for monosaccharides and disaccharides as acceptors, and on HPLC for trisaccharides as acceptors to confirm whether these saccharides could be used as their saccharide transferring reaction acceptors. In the case of performing GLC, the following apparatuses and conditions are used: GLC apparatus, “GC-16A” commercialized by Shimadzu Corporation, Tokyo, Japan; column, a stainless-steel column, 3 mm in diameter and 2 m in length, packed with 2% “SILICONE OV-17/CHROMOSOLV W”, commercialized by GL Sciences Inc., Tokyo, Japan; carrier gas, nitrogen gas at a flow rate of 40 ml/min under temperature conditions of increasing from 160° C. to 320° C. at an increasing temperature rate of 7.5° C./min; and detection, a hydrogen flame ionization detector.
# (§2) In the case of HPLC analysis, the apparatuses and conditions used were: HPLC apparatus, “CCPD” commercialized by Tosoh Corporation, Tokyo, Japan; column, “ODS-AQ-303” commercialized by YMC Co., Ltd., Tokyo, Japan; eluent, water at a flow rate of 0.5 ml/min; and detection, a differential refractometer.
# [2] = test system: α-isomaltosylglucosaccharide-forming enzyme from Bacillus globisporus C11 strain; experiment: Specificity of saccharide transferring reaction acceptor, enzyme of Strain C11; format: biochemical; parameters: key: −: no saccharide-transferred product was detected through transferring reaction to acceptor; ±: a saccharide-transferred product was detected in an amount of less than one percent through transfer reaction to acceptor; +: a saccharide-transferred product was detected in an amount of at least one percent but less than ten percent through transferring reaction to acceptor; ++: a saccharide-transferred product was detected in an amount of at least ten percent through transferring reaction to acceptor; conditions: 1.6% acceptor, 4% PINE-DEX #100 as donor, one unit/g donor, 30° C., pH 6.0, 24 hours; GLC or HPLC
# Protocol: as §1, §2
Structure (SMILES),"Product of saccharide transferring reaction, Enzyme of Strain C9 [1]","Product of saccharide transferring reaction, Enzyme of Strain C11 [2]"
"O=C(CO)[C@@H](O)[C@H](O)[C@@H](O)CO [L-Sorbose, L-sorbose]",+ (a saccharide-transferred product was detected in an amount of at least one percent but less than ten percent through transferring reaction to acceptor),+ (a saccharide-transferred product was detected in an amount of at least one percent but less than ten percent through transferring reaction to acceptor)
"O=C[C@H](O)[C@@H](O)[C@H](O)CO [D-Xylose, D-xylose]",++ (a saccharide-transferred product was detected in an amount of at least ten percent through transferring reaction to acceptor),++ (a saccharide-transferred product was detected in an amount of at least ten percent through transferring reaction to acceptor)
"O=C[C@@H](O)[C@H](O)[C@@H](O)CO [L-Xylose, L-xylose]",++ (a saccharide-transferred product was detected in an amount of at least ten percent through transferring reaction to acceptor),++ (a saccharide-transferred product was detected in an amount of at least ten percent through transferring reaction to acceptor)
"OC[C@H]1O[C@@H]2O[C@H]3[C@H](O)[C@@H](O)[C@@H](O[C@H]4[C@H](O)[C@@H](O)[C@@H](O[C@H]5[C@H](O)[C@@H](O)[C@@H](O[C@H]6[C@H](O)[C@@H](O)[C@@H](O[C@H]7[C@H](O)[C@@H](O)[C@@H](O[C@H]8[C@H](O)[C@@H](O)[C@@H](O[C@H]9[C@H](O)[C@@H](O)[C@@H](O[C@H]1[C@H](O)[C@H]2O)O[C@@H]9CO)O[C@@H]8CO)O[C@@H]7CO)O[C@@H]6CO)O[C@@H]5CO)O[C@@H]4CO)O[C@@H]3CO [γ-Cyclodextrin, γ-cyclodextrin]",−,−
"OC[C@@H](O)[C@@H](O)[C@H](O)[C@@H](O)CO [Sorbitol, sorbitol]",−,−
"CC(=O)N[C@H]1C(O)O[C@H](CO)[C@@H](O)[C@@H]1O (stereo partly shown) [N-Acetyl-glucosamine, N-acetyl-glucosamine]",+ (a saccharide-transferred product was detected in an amount of at least one percent but less than ten percent through transferring reaction to acceptor),+ (a saccharide-transferred product was detected in an amount of at least one percent but less than ten percent through transferring reaction to acceptor)
"CO[C@@H]1O[C@H](CO)[C@@H](O)[C@H](O)[C@H]1O [Methyl-β-glucopyranoside, methyl-β-glucopyranoside]",++ (a saccharide-transferred product was detected in an amount of at least ten percent through transferring reaction to acceptor),++ (a saccharide-transferred product was detected in an amount of at least ten percent through transferring reaction to acceptor)
"O=C[C@@H](O)[C@H](O)[C@H](O)CO [D-Arabinose, D-arabinose]",± (a saccharide-transferred product was detected in an amount of less than one percent through transfer reaction to acceptor),± (a saccharide-transferred product was detected in an amount of less than one percent through transfer reaction to acceptor)
"C[C@@H](O)[C@H](O)[C@H](O)[C@@H](O)C=O [D-Fucose, D-fucose]",+ (a saccharide-transferred product was detected in an amount of at least one percent but less than ten percent through transferring reaction to acceptor),+ (a saccharide-transferred product was detected in an amount of at least one percent but less than ten percent through transferring reaction to acceptor)
"O=C[C@H](O)[C@@H](O)[C@@H](O)[C@H](O)CO [D-Galactose, D-galactose]",+ (a saccharide-transferred product was detected in an amount of at least one percent but less than ten percent through transferring reaction to acceptor),+ (a saccharide-transferred product was detected in an amount of at least one percent but less than ten percent through transferring reaction to acceptor)
"C[C@H](O)[C@H](O)[C@@H](O)[C@@H](O)C=O [L-Rhamnose, L-rhamnose]",−,−
"O=C[C@@H](O)[C@@H](O)[C@H](O)[C@H](O)CO [D-Mannose, D-mannose]",−,−
"O=C[C@H](O)[C@@H](O)[C@H](O)[C@H](O)CO [D-Glucose, D-glucose]",+ (a saccharide-transferred product was detected in an amount of at least one percent but less than ten percent through transferring reaction to acceptor),+ (a saccharide-transferred product was detected in an amount of at least one percent but less than ten percent through transferring reaction to acceptor)
"O=C(CO)[C@@H](O)[C@H](O)[C@H](O)CO [D-Fructose, D-fructose]",+ (a saccharide-transferred product was detected in an amount of at least one percent but less than ten percent through transferring reaction to acceptor),+ (a saccharide-transferred product was detected in an amount of at least one percent but less than ten percent through transferring reaction to acceptor)
"OC[C@H]1O[C@@H]2O[C@H]3[C@H](O)[C@@H](O)[C@@H](O[C@H]4[C@H](O)[C@@H](O)[C@@H](O[C@H]5[C@H](O)[C@@H](O)[C@@H](O[C@H]6[C@H](O)[C@@H](O)[C@@H](O[C@H]7[C@H](O)[C@@H](O)[C@@H](O[C@H]1[C@H](O)[C@H]2O)O[C@@H]7CO)O[C@@H]6CO)O[C@@H]5CO)O[C@@H]4CO)O[C@@H]3CO [α-Cyclodextrin, α-cyclodextrin]",−,−
"CO[C@H]1O[C@H](CO)[C@@H](O)[C@H](O)[C@H]1O [Methyl-α-glucopyranoside, methyl-α-glucopyranoside]",++ (a saccharide-transferred product was detected in an amount of at least ten percent through transferring reaction to acceptor),++ (a saccharide-transferred product was detected in an amount of at least ten percent through transferring reaction to acceptor)
"OC[C@H]1O[C@@H]2O[C@H]3[C@H](O)[C@@H](O)[C@@H](O[C@H]4[C@H](O)[C@@H](O)[C@@H](O[C@H]5[C@H](O)[C@@H](O)[C@@H](O[C@H]6[C@H](O)[C@@H](O)[C@@H](O[C@H]7[C@H](O)[C@@H](O)[C@@H](O[C@H]8[C@H](O)[C@@H](O)[C@@H](O[C@H]1[C@H](O)[C@H]2O)O[C@@H]8CO)O[C@@H]7CO)O[C@@H]6CO)O[C@@H]5CO)O[C@@H]4CO)O[C@@H]3CO [β-Cyclodextrin, β-cyclodextrin]",−,−
